We go through eight compounds from ChEMBL document CHEMBL1122521, “Nucleic acid related compounds. 47. Synthesis and biological activities of pyrimidine and purine "acyclic" nucleoside analogues” (J Med Chem, 1984).

In brackets after ≈: the same amount, converted by molar mass. Bounds are passed on as bounds.

What all share (assay type): functional
Assay [1] relates to Human alphaherpesvirus 2. In words: Concentration required to reduce cytopathogenicity of Herpes simplex virus type 2 (strain G) by 50% in primary rabbit kidney (PRK) cells. On the technique in general: Cytopathic effects are the visible damage that an infection or toxin causes in cultured cells.
For assay [2], the system named is Human alphaherpesvirus 1. The assay can be described thus: Concentration required to reduce cytopathogenicity of Herpes simplex virus type 1 (strain KOS) by 50% in primary rabbit kidney (PRK) cells.
For assay [3], the system named is L1210. The assay can be described thus: Inhibitory concentration required to reduce [14C-2]-dUrd incorporation into cellular DNA by 50% in Murine Leukemia L1210 cells. As to conditions: Mus musculus, read-out: ID50 (the source's name).
Assay [4] concerns L1210. The assay can be described thus: Inhibitory concentration required to reduce [3H-methyl]-dThd C incorporation into cellular DNA by 50% in Murine Leukemia L1210 cells. As to conditions: Mus musculus, read-out: ID50 (the source's name).
The subject of assay [5] is L1210. In words: Inhibitory concentration required to reduce cell growth of Murine Leukemia L1210 cells. As to conditions: Mus musculus, read-out: ID50 (the source's name).
The nature of assay [6]: Inhibitory concentration required to reduce incorporation of 2-deoxythymidine (dThd) into DNA of Primary Rabbit kidney (PRK) cell cultures. As to conditions: Oryctolagus cuniculus, read-out: ID50 (the source's name).
Assay [7] can be described thus: Inhibitory concentration required to reduce incorporation of 2-deoxyuridine (dUrd) into DNA of Primary Rabbit kidney (PRK) cell cultures. As to conditions: Oryctolagus cuniculus, read-out: ID50 (the source's name).
Assay [8] has as its system Vesicular stomatitis virus. In words: Concentration required to reduce cytopathogenicity of Vesicular stomatitis virus by 50% in primary rabbit kidney (PRK) cells.
The nature of assay [9]: Ratio of ID50 for dThd or dUrd incorporation to ID50 for HSV-1, HSV-2 or VV(whatever was lowest).
The subject of assay [10] is L1210. The assay can be described thus: Inhibitory concentration required to reduce [3H1',2']dUrd incorporation into cellular DNA by 50% in Murine Leukemia L1210 cells. As to conditions: Mus musculus, read-out: ID50 (the source's name).
Assay [11] can be described thus: Inhibitory concentration required to reduce 2-deoxyuridine ([3H-1'2']dUrd) incorporation into DNA of Primary Rabbit kidney (PRK) cell cultures. The following applies: Oryctolagus cuniculus, read-out: ID50 (the source's name).
The test system of assay [12] is L1210. In words: Inhibitory concentration required to reduce [3H1',2']dUrd incorporation into cellular DNA by 50 %. As to conditions: Mus musculus, read-out: ID50 (the source's name).

For `O=c1[nH]c(=O)n([C@H]2C[C@H](O)[C@@H](CO)O2)cc1I` [IDOXURIDINE], the ID50 is 0.3 µg/mL (≈ 0.847 µM) in [1], 0.1 µg/mL (≈ 0.282 µM) in assay [2] and >400 µg/mL in [8]. The IC50 in [3] was found to be 0.82 µg/mL (≈ 2.32 µM); in assay [4], 4.3 µg/mL (≈ 12.1 µM); in assay [5], 61 µg/mL (≈ 172 µM); in [6], 2 µg/mL (≈ 5.65 µM); in assay [7] it was 0.3 µg/mL (≈ 0.847 µM). Also, the Antiviral index in assay [9] was found to be 3.

Consider `OCCOCn1cnc2c(O)ncnc21`, for which the ID50 in [1] and in [2] was >400 µg/mL throughout. The IC50 in assay [4] was > 1000 µg/mL; in [10], > 1000 µg/mL; in assay [5], > 1000 µg/mL; in [11], > 100 µg/mL; in [6] it was > 100 µg/mL.

Consider `CC(=O)OCCOCn1cnc2c(Cl)nc(N)nc21`, for which the ID50 in assay [1] was 20 µg/mL (≈ 70 µM); in [2], 20 µg/mL (≈ 70 µM); in [8], >400 µg/mL. For the same compound, the IC50 in assay [4] was > 1000 µg/mL; in assay [10] it was > 1000 µg/mL; in [5], 91 µg/mL (≈ 319 µM); in assay [11], 71 µg/mL (≈ 249 µM); in assay [6], 55 µg/mL (≈ 193 µM). Besides, in assay [9], the Antiviral index is 2.7.

Regarding `Nc1nc2c(nc(O)n2COCCO)c(=O)[nH]1`, the ID50 in assay [1] was 25 µg/mL (≈ 104 µM); in [2], 15 µg/mL (≈ 62.2 µM); in [8], >400 µg/mL. The IC50 was > 500 µg/mL in assay [4]; > 500 µg/mL in assay [12]; > 500 µg/mL in [5]; ≥ 100 µg/mL in assay [11]; 48 µg/mL (≈ 199 µM) in [6]. Moreover, the Antiviral index in assay [9] was 3.2.

In the case of `Nc1nc2c(nc(Cl)n2COCCO)c(=O)[nH]1`, the values for the ID50 in [1] and in [2] were >400 µg/mL and 70 µg/mL (≈ 270 µM), respectively. For the same compound, the IC50 in assay [4] is > 1000 µg/mL; in assay [10], > 1000 µg/mL; in assay [5] it was 350 µg/mL (≈ 1350 µM); in assay [11] it was > 400 µg/mL; in assay [6], > 400 µg/mL. Besides, the Antiviral index in assay [9] was > 6.

With `O=c1[nH]c(=O)n([C@H]2C[C@H](O)[C@@H](CO)O2)cc1F` [FLOXURIDINE], the IC50 in assay [3] stood at 0.003 µg/mL (≈ 0.0122 µM); in assay [4], 80 µg/mL (≈ 325 µM); in assay [5], 0.001 µg/mL (≈ 0.00406 µM).

Regarding `Nc1nc(Cl)c2ncn(COCCO)c2n1`, the ID50 was 20 µg/mL (≈ 82.1 µM) in assay [1], 2 µg/mL (≈ 8.21 µM) in assay [2] and >400 µg/mL in assay [8]. The IC50 in [4] is > 1000 µg/mL; in assay [10], > 1000 µg/mL; in assay [5], 69 µg/mL (≈ 283 µM); in assay [11], > 100 µg/mL; in assay [6], 50 µg/mL (≈ 205 µM). In assay [9], the Antiviral index worked out at 25.

As to `Nc1nc2c(ncn2COCCO)c(=O)[nH]1` [ACYCLOVIR], the ID50 in assay [1] is 0.04 µg/mL (≈ 0.178 µM); in assay [2], 0.05 µg/mL (≈ 0.222 µM); in assay [8], >400 µg/mL. Moreover, the IC50 stood at 367 µg/mL (≈ 1630 µM) in [4]; 50 µg/mL (≈ 222 µM) in assay [10]; 13 µg/mL (≈ 57.7 µM) in [5]; 13 µg/mL (≈ 57.7 µM) in assay [11]; 12 µg/mL (≈ 53.3 µM) in [6]. Further, the Antiviral index in assay [9] came to 300.
